Results from US9113629B2, “4-amino-6-(4-substituted-phenyl)-picolinates and 6-amino-2-(4-substituted-phenyl)-pyrimidine-4-carboxylates and their use as herbicides” (DOW AGROSCIENCES LLC, priority 2013, dated 2015).
Read-outs that look alike come from different tables or passages of the source.

Assays:
[1] = test system: Key Grass and Sedge Weeds as well as Grass Crops; test: Post-emergent Test II herbicidal activity (Table 6); type: in vivo; details: post-emergence, 336 h; for pest or weed control at 70 g/ha: 70 g ai/ha; for pest or weed control at 140 g/ha: 140 g ai/ha
Method in brief: (§1)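 Post-emergence foliar spray, 187 L/ha, track sprayer at 43 cm above canopy. Carrier: acetone/water/IPA/DMSO/Atplus 411F/Triton X-155. Plants at 1st–2nd true leaf; subirrigated afterwards; % injury scored visually at 14 d.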

[2] = test system: Key Broadleaf Weed and Crop Species; test: Post-emergent Test II herbicidal activity (Table 5); type: in vivo; details: post-emergence, 336 h, 14 days after application; for pest or weed control at 70 g/ha: application rate 70 g ai/ha; for pest or weed control at 140 g/ha: application rate 140 g ai/ha
Method in brief: as §1

[3] = CYPES: yellow nutsedge (Cyperus esculentus), read-out: Visual Growth Reduction (%) 14 Days After Application, CYPES
[4] = DIGSA: crabgrass (Digitaria sanguinalis), read-out: Visual Growth Reduction (%) 14 Days After Application, DIGSA
[5] = ECHCG: barnyardgrass (Echinochloa crus-galli), read-out: Visual Growth Reduction (%) 14 Days After Application, ECHCG
[6] = ORYSA: rice (Oryza sativa), crop, read-out: Visual Growth Reduction (%) 14 Days After Application, ORYSA
[7] = SETFA: giant foxtail (Setaria faberi), read-out: Visual Growth Reduction (%) 14 Days After Application, SETFA
[8] = SORVU: grain sorghum (Sorghum vulgare), read-out: Visual Growth Reduction (%) 14 Days After Application, SORVU
[9] = TRZSS (wheat, Triticum aestivum), crop, read-out: Visual Growth Reduction (%) 14 Days After Application, TRZSS
[10] = ZEAMX: maize, corn (Zea mays), crop, read-out: Visual Growth Reduction (%) 14 Days After Application, ZEAMX
[11] = ABUTH: velvetleaf (Abutilon theophrasti), read-out: Visual Growth Reduction (%) 14 Days After Application, ABUTH
[12] = AMARE: redroot pigweed (Amaranthus retroflexus), read-out: Visual Growth Reduction (%) 14 Days After Application, AMARE
[13] = BRSNN: oilseed-rape, canola (Brassica napus), read-out: Visual Growth Reduction (%) 14 Days After Application, BRSNN
[14] = CHEAL: lambsquarters (Chenopodium album), read-out: Visual Growth Reduction (%) 14 Days After Application, CHEAL
[15] = EPHHL: wild poinsettia (Euphorbia heterophylla), read-out: Visual Growth Reduction (%) 14 Days After Application, EPHHL
[16] = HELAN: sunflower (Helianthus annuus), read-out: Visual Growth Reduction (%) 14 Days After Application, HELAN
[17] = VIOTR: wild pansy (Viola tricolor), read-out: Visual Growth Reduction (%) 14 Days After Application, VIOTR

Row | melting point [°C] | Compound | pest or weed control at 70 g/ha [1, 3] [%] | pest or weed control at 140 g/ha [1, 3] [%] | pest or weed control at 70 g/ha [1, 4] [%] | pest or weed control at 140 g/ha [1, 4] [%] | pest or weed control at 70 g/ha [1, 5] [%] | pest or weed control at 140 g/ha [1, 5] [%] | pest or weed control at 70 g/ha [1, 6] [%] | pest or weed control at 140 g/ha [1, 6] [%] | pest or weed control at 70 g/ha [1, 7] [%] | pest or weed control at 140 g/ha [1, 7] [%] | pest or weed control at 70 g/ha [1, 8] [%] | pest or weed control at 140 g/ha [1, 8] [%] | pest or weed control at 70 g/ha [1, 9] [%] | pest or weed control at 140 g/ha [1, 9] [%] | pest or weed control at 70 g/ha [1, 10] [%] | pest or weed control at 140 g/ha [1, 10] [%] | pest or weed control at 70 g/ha [2, 11] [%] | pest or weed control at 140 g/ha [2, 11] [%] | pest or weed control at 70 g/ha [2, 12] [%] | further results
1 | 163 to 164 | COC(=O)c1nc(-c2ccc(C#N)c(F)c2F)c(F)c(N)c1Cl [Compound 160] | 0 to 29 | 0 to 29 | 0 to 29 | 0 to 29 | 0 to 29 | 0 to 29 | 0 to 29 | 0 to 29 | 0 to 29 | 0 to 29 | 0 to 29 | 0 to 29 | 0 to 29 | 0 to 29 | 0 to 29 | 0 to 29 | 30 to 44 | 45 to 59 | 85 to 94 | pest or weed control at 140 g/ha [2, 12]: 95 to 100%; pest or weed control at 70 g/ha [2, 13]: 0 to 29%; pest or weed control at 140 g/ha [2, 13]: 0 to 29%; pest or weed control at 70 g/ha [2, 14]: 60 to 74%; pest or weed control at 140 g/ha [2, 14]: 75 to 84%; pest or weed control at 70 g/ha [2, 15]: 45 to 59%; pest or weed control at 140 g/ha [2, 15]: 60 to 74%; pest or weed control at 70 g/ha [2, 16]: 85 to 94%; pest or weed control at 140 g/ha [2, 16]: 95 to 100%; pest or weed control at 70 g/ha [2, 17]: 0 to 29%; pest or weed control at 140 g/ha [2, 17]: 0 to 29%
2 | 147 to 148 | COC(=O)c1nc(-c2ccc(F)c(F)c2F)c(F)c(N)c1Cl [Compound 186] | 85 to 94 | 85 to 94 | 45 to 59 | 60 to 74 | 85 to 94 | 95 to 100 | 0 to 29 | 30 to 44 | 0 to 29 | 60 to 74 | 60 to 74 | 75 to 84 | 60 to 74 | 60 to 74 | 75 to 84 | 85 to 94 | 95 to 100 | 95 to 100 | 95 to 100 | pest or weed control at 140 g/ha [2, 12]: 95 to 100%; pest or weed control at 70 g/ha [2, 13]: 85 to 94%; pest or weed control at 140 g/ha [2, 13]: 95 to 100%; pest or weed control at 70 g/ha [2, 14]: 95 to 100%; pest or weed control at 140 g/ha [2, 14]: 95 to 100%; pest or weed control at 70 g/ha [2, 15]: 95 to 100%; pest or weed control at 140 g/ha [2, 15]: 95 to 100%; pest or weed control at 70 g/ha [2, 16]: 85 to 94%; pest or weed control at 140 g/ha [2, 16]: 95 to 100%; pest or weed control at 70 g/ha [2, 17]: 85 to 94%; pest or weed control at 140 g/ha [2, 17]: 95 to 100%
3 | 133 to 135 | COC(=O)c1nc(-c2ccc(C(F)(F)F)c(F)c2)c(F)c(N)c1Cl [Compound 165] | 95 to 100 | 95 to 100 | 60 to 74 | 60 to 74 | 85 to 94 | 95 to 100 | 0 to 29 | 0 to 29 | 60 to 74 | 85 to 94 | 60 to 74 | 60 to 74 | 45 to 59 | 45 to 59 | 75 to 84 | 95 to 100 | 85 to 94 | 95 to 100 | 85 to 94 | pest or weed control at 140 g/ha [2, 12]: 85 to 94%; pest or weed control at 70 g/ha [2, 13]: 75 to 84%; pest or weed control at 140 g/ha [2, 13]: 85 to 94%; pest or weed control at 70 g/ha [2, 14]: 95 to 100%; pest or weed control at 140 g/ha [2, 14]: 95 to 100%; pest or weed control at 70 g/ha [2, 15]: 95 to 100%; pest or weed control at 140 g/ha [2, 15]: 95 to 100%; pest or weed control at 70 g/ha [2, 16]: 95 to 100%; pest or weed control at 140 g/ha [2, 16]: 95 to 100%; pest or weed control at 70 g/ha [2, 17]: 45 to 59%; pest or weed control at 140 g/ha [2, 17]: 95 to 100%
